From publication PMC9227096, “Design, Synthesis, and In Vitro, In Silico and In Cellulo Evaluation of New Pyrimidine and Pyridine Amide and Carbamate Derivatives as Multi-Functional Cholinesterase Inhibitors” (Pharmaceuticals, 2022)
Read-outs that look alike come from different tables or passages of the source.

Key:
[1] = target: T1, Electrophorus electricus AChE (EeAChE) (Electrophorus electricus, UniProt O42275); assay: Ellman's spectrophotometric method, percent inhibition of EeAChE (zero time and after 1 h incubation); format: biochemical
T1 construct: purchased Sigma-Aldrich (Milan, Italy)
T1 sequence (O42275 24-633): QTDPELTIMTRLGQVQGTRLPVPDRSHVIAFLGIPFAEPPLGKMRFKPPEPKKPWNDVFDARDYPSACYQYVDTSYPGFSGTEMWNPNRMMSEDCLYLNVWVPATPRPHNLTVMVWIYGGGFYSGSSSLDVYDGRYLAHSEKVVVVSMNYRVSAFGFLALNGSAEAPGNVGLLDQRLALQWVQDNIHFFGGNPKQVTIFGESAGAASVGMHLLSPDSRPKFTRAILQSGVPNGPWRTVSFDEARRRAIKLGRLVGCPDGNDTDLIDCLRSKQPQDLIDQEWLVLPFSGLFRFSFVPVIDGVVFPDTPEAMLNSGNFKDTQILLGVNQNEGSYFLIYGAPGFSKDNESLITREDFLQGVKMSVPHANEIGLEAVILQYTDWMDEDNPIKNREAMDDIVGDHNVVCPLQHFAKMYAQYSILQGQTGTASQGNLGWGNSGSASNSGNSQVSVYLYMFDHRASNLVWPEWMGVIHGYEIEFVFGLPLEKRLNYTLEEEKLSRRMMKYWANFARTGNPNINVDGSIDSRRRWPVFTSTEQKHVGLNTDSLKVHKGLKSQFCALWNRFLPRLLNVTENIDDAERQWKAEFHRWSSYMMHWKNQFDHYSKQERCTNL
Method: Regarding the synthesized compounds enzymatic inhibition studies were carried out on Electrophorus electricus AChE (EeAChE) and equine BChE (eqBChE), according to Ellman’s spectrophotometric method.
All other chemical and biological reagents and solvents used were of the highest analytical, commercially available grade. The water, utilized for the preparation of the phosphate buffer and of the solutions of compounds, was distilled and filtered on nylon membrane filters with 0.2 μm pore size with the Millipore® Filtration apparatus before each use. Micropipettes Labmate (BRAND Dig. 10–100 μL; Dig. 100–1000 μL; Dig. 0.1–2 μL) and Transferpette (HIGH TECH LAB LM200: 20–200 μL; LM5000: 1000–5000 μL) were used to collect the samples. The assays were carried out by double beam UV–Vis Lambda 40 Perkin Elmer spectrophotometer, using optical polystyrene cuvettes (10 × 10 × 45 mm, 340–800 nm optical transparency), each measure was repeated at least in triplicate. […] Vivaspin® 2 Sartorius, with a membrane of 3000 MWCO (molecular weight cutoff) consisting of polyethersulfone (PES), cellulose triacetate (CTA) and hydrosart, was used for the ultrafiltration procedures. An ALC PK110 bench-top centrifuge was used for centrifugation. The spectrophotometric method of Ellman, with minor modifications, was used to evaluate the inhibition of cholinesterase enzymes. […] EeAChE and eqBChE were periodically tested to evaluate the effective enzymatic activity.
An amount of 3.0 mL of a solution in 0.1 M phosphate buffer (pH = 7.4) containing DTNB (0.25 mM) and EeAChE (0.083 UmL^−1) or eqBChE (0.083 UmL^−1) were placed in a polystyrene cuvette of 1.0 cm path length; 1 µL of a solution in DMSO of the tested compound was added to obtain in cuvette concentration range 9 µM–0.09 µM. With this solution the blank was made.
Each experiment was repeated at least in triplicate.
The cuvettes were prepared consecutively at intervals of 3 min to allow equal incubation times.

tau protein = target: T2, tau protein (Homo sapiens, UniProt P10636); assay: Inhibition of tau aggregation in intact E. coli cells, thioflavin-S staining; format: cell-based, Escherichia coli; conditions: [I] = 100 µM, E. coli cells overexpressing tau
T2 construct: expressed in transfected cells; host or cells: E. coli BL21 (DE3) with pTARA (T7 RNA polymerase under PBAD) and pRKT42
T2 sequence (P10636 1-441 isoform P10636-8): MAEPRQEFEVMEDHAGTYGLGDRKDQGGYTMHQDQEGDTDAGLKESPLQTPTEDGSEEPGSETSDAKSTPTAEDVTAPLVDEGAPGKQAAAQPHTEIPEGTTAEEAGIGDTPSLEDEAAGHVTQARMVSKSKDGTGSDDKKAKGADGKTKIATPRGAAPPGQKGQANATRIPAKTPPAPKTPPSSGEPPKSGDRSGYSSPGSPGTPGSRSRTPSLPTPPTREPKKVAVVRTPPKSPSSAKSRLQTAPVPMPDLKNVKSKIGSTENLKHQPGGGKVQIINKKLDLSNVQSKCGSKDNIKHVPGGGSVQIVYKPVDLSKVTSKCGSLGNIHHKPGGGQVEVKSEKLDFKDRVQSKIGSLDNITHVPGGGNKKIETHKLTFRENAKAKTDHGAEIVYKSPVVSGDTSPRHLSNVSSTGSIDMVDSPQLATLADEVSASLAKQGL
Method: For compounds 12, 14 and 18, the inhibitory activity against Aβ42 and tau aggregation was evaluated. The anti-aggregating effect of tested compounds was monitored by a cell-based assay in intact Escherichia coli cells that overexpress either Aβ42 peptide or tau protein, which, upon expression, form insoluble inclusion bodies that were stained with thioflavin-S [42]. The percentages of inhibition towards Aβ42 and tau aggregation were determined at an inhibitor concentration of 100 µM and the obtained results are reported in Table 6. In general, these compounds show a weak anti-aggregating activity; among these, the pyridine carbamate 18 is the best inhibitor of aggregation of both Aβ42 and tau.
E. coli BL21 (DE3) competent cells were transformed with pTARA containing the RNA-polymerase gene of T7 phage (T7RP), under the control of the promoter PBAD. E. coli BL21 (DE3), with pTARA competent cells, were transformed with the pRKT42 vector encoding four repeats of the tau protein in two inserts. For overnight culture preparation, 10 mL of the M9 medium containing 0.5% of glucose, 50 μg·mL^−1 of ampicillin, and 12.5 μg·mL^−1 of chloramphenicol was inoculated with a colony of BL21 (DE3) bearing the plasmids to be expressed at 37 °C. […]
Th-S (T1892) and other chemical reagents were purchased from Sigma (St. Louis, MO, USA). […] Th-S fluorescence and absorbance were tracked using a DTX 800 plate reader Multimode Detector equipped with a Multimode Analysis Software (Beckman-Coulter, Indianapolis, IN, USA). […] A filter of 535/25 nm was also used for the absorbance determination. To normalize the Th-S fluorescence as a function of the bacterial concentration, OD600 was obtained using a Shimadzu UV-2401 PC UV–Vis spectrophotometer (Shimadzu, Japan). Note that the fluorescence normalisation was carried out considering 100% of the Th-S fluorescence of the bacterial cells expressing the peptide or protein in the absence of the drug and 0% of the Th-S fluorescence of the bacterial cells not expressing the peptide or protein. […]

[2] = read-out: % Inhibition vs. EeAChE ± SD, [I] 9 µM, 0.0833 U/mL enzyme, 100 µM acetylthiocholine

SMILES | % Inhibition vs. EeAChE ± SD ([1]; [I] 9 µM, 0.0833 U/mL enzyme, 100 µM acetylthiocholine) [%] | inhibition at 9 µM [1, 2] [%] | inhibition at 100 µM (tau protein) [%] | inhibition at 9 µM ([1]; 1 h, read-out: % Inhibition vs. EeAChE ± SD, [I] = 9 µM, t = 1 h incubation at 25 °C) [%]
O=C(NCCCCCCNc1ccccn1)c1ccccc1 [Compound 12, N-(6-(pyridin-2-ylamino)hexyl)benzamide] | 34.0 ± 2.1 | 34 | 11 | –
O=C(Cc1ccc(Oc2ccccc2)cc1)NCCCCCCNc1ccccn1 [Compound 14, 2-(4-phenoxyphenyl)-N-(6-(pyridin-2-ylamino)hexyl)acetamide] | – | 42.6 ± 1.4 | 10.9 | –
O=C(NCCCCCCNc1ccccn1)Oc1ccccc1 [Compound 18, Phenyl (6-(pyridin-2-ylamino)hexyl)carbamate] | – | – | 15.7 | 41.6 ± 0.7
